Type in all cases: biochemical
The target of one assay is T1, Nox2 (hNox2) (Homo sapiens, UniProt P04839).
T1 construct: gene CYBB; membranes from transgenic Drosophila (Duox knockdown) over-expressing human Nox2
T1 sequence (P04839 2-570): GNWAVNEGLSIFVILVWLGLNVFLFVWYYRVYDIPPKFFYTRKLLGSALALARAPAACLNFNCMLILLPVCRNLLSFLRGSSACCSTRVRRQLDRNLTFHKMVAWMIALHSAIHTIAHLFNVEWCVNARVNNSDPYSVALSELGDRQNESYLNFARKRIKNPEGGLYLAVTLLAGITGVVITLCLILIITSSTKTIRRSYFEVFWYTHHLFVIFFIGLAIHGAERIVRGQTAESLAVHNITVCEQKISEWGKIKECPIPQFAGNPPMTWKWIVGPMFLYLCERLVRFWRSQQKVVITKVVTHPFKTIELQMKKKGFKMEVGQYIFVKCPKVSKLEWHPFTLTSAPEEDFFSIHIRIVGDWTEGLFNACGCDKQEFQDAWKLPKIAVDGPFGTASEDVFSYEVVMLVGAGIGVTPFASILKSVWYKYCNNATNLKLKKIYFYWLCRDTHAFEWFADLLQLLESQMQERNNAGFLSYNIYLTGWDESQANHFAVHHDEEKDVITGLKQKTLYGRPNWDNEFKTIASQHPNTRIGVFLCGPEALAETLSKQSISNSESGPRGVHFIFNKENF
The experiment in a line: lucigenin chemiluminescence ROS assay in Drosophila membranes expressing hNox2.

The next assay concerns the target T2, Nox1 (hNox1) (Homo sapiens, UniProt Q9Y5S8).
T2 construct: membranes from transgenic Drosophila (Duox knockdown) over-expressing human Nox1
T2 sequence (Q9Y5S8 1-564): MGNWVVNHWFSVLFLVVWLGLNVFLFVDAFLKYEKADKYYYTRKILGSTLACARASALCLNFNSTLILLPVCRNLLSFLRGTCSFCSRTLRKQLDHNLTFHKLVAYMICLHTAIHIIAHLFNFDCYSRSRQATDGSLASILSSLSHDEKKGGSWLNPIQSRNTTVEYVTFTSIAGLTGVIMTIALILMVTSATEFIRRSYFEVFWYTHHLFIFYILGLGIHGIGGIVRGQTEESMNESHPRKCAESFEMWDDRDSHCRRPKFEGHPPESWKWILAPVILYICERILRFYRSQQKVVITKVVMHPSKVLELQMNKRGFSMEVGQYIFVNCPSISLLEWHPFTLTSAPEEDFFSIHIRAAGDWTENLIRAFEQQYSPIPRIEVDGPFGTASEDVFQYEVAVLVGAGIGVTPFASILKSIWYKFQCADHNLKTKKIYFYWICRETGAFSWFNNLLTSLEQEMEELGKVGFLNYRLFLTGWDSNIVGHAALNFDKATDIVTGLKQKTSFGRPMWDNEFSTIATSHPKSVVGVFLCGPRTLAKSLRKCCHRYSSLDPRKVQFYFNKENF
As to the kind of experiment: lucigenin chemiluminescence ROS assay in Drosophila membranes expressing hNox1.

The next assay has as its target T3, Duox1 (hDuox1) (Homo sapiens, UniProt Q9NRD9).
T3 construct: membranes from transgenic Drosophila (Duox knockdown) over-expressing human Duox1
The experiment in a line: lucigenin chemiluminescence ROS assay in Drosophila membranes expressing hDuox1.

Another assay deals with T4, Nox4 (hNox4) (Homo sapiens, UniProt Q9NPH5).
T4 construct: membranes from transgenic Drosophila (Duox knockdown) over-expressing human Nox4
T4 sequence (Q9NPH5 1-578): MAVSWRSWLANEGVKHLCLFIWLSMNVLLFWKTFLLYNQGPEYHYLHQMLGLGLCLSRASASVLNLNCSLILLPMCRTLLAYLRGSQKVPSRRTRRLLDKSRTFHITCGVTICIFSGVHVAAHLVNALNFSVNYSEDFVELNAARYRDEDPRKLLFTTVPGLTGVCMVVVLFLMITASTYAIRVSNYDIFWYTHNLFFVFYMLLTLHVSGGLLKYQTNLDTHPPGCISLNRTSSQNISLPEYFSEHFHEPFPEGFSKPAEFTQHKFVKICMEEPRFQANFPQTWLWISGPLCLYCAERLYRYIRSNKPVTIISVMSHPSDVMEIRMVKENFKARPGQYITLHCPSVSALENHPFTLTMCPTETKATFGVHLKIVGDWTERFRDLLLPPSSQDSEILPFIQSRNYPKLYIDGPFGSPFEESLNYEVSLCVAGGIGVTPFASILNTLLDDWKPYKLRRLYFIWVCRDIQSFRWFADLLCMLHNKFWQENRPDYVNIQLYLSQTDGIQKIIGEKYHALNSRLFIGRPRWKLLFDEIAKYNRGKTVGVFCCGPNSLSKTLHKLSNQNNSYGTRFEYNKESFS
As to the kind of experiment: lucigenin chemiluminescence ROS assay in Drosophila membranes expressing hNox4.

In general, IC50 refers to the concentration needed to halve the response being measured. A high value points to lower potency.

T3 sequence (Q9NRD9 22-1551): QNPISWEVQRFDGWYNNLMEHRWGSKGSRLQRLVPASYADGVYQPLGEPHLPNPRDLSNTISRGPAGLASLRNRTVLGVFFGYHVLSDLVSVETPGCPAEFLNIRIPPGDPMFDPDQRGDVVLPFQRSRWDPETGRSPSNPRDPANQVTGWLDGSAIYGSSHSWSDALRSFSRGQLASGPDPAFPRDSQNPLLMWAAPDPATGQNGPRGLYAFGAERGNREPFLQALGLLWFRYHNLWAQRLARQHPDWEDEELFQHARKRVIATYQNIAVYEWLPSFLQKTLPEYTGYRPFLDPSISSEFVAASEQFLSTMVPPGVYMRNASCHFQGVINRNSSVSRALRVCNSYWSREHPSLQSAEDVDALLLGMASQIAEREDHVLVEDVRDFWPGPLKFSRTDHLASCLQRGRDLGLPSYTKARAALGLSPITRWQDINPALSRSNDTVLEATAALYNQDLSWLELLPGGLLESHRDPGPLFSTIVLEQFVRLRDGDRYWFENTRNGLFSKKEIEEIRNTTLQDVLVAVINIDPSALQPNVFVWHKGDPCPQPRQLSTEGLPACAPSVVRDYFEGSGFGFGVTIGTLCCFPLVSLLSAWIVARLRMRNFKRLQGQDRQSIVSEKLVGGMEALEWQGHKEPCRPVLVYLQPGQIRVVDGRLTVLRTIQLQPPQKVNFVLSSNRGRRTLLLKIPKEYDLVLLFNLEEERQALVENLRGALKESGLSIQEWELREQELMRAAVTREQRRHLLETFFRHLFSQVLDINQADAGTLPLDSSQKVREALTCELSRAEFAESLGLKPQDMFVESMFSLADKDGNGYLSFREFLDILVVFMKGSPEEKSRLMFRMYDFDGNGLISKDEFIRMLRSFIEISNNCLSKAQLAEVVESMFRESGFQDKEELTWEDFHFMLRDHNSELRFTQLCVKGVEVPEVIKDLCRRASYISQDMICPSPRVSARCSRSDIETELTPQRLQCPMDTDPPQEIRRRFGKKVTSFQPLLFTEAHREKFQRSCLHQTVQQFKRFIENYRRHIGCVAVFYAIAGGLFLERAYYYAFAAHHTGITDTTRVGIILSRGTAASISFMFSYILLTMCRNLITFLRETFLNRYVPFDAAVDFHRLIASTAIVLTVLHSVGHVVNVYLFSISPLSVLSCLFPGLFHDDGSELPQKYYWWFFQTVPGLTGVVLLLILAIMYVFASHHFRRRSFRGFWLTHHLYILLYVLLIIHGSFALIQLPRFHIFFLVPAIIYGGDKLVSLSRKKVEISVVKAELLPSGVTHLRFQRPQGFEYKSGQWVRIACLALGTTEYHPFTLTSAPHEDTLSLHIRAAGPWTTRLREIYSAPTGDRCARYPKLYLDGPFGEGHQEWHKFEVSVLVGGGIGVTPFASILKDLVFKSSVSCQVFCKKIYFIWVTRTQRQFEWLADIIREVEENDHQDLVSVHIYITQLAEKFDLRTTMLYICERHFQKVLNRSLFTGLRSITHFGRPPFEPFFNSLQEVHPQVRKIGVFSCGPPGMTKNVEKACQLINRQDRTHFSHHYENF

For the compound `C=C[C@H](OC(C)=O)c1ccc(OC(C)=O)cc1` [compound 26, 1′S-1′-acetoxychavicol acetate], the IC50 was 42.3 µM at Nox2 (hNox2), 32.7 µM against Nox1 (hNox1), 30.8 µM on Duox1 (hDuox1) and 31.3 µM on Nox4 (hNox4).
